pIC50: −log10 of the molar value.
Experiments:
[1] = test system: RKOp27 colon adenocarcinoma cells arrested by expression of ectopic p27Klp1; assay: Alamar Blue cell viability assay, cell cycle specific mode of action, RKOp27 cells arrested by Ponasterone A-induced p27 expression; format: cell-based; settings: Homo sapiens, cells arrested by p27 induced with 10 μM Ponasterone A, 72 hours incubation, 16000 cells per well, read-out: IC50 RKO p27 induced
Method: To determine the cell cycle specific mode of action, subclones of RKO colon adenocarcinoma cells (RKOp27 or RKOp21 as described by Schmidt et al. in Oncogene 19, 2423-2429; 2000) are seeded into 96 well flat bottom plates at a density of 16000 cells per well in a volume of 50 μl per well in DMEM growth medium with 10% FCS containing 10 μM Ponasterone A. 24 hours after seeding the 50 μl each of the compound dilutions in DMEM medium are added into each well of the 96 Well plate. Each compound dilution is tested as quadruplicates. Wells containing untreated control cells are filled with 50 μl DMEM medium containing 1% DMSO. The cells are then incubated with the substances for 72 hours at 37° C. in a humidified atmosphere containing 5% carbon dioxide. To determine the viability of the cells, 10 μl of an Alamar Blue solution (Biosource) are added and the fluorescence was measured at an extinction of 544 nm and an emission of 590 nm. For the calculation of the cell viability the emission value from untreated cells is set as 100% viability and the emission rates of treated cells are set in relation to the values of untreated cells. Viabilities are expressed as % values. Viability is compared of proliferating cells grown in the absence of the inducer Ponasterone A, versus viability of cells arrested by the expression of ectopic p27Klp1 induced by Ponasterone A. The data of this experimental setting are summarized in table A (2nd column).

[2] = test system: RKO (RKOp27) human colon adenocarcinoma cells; assay: Alamar Blue cell viability assay, anti-proliferative/cytotoxic activity, proliferating (uninduced) RKOp27 cells; format: cell-based; settings: no Ponasterone A, 72 hours incubation, 4000 cells per well, read-out: IC50 RKO p27 uninduced
Method: The anti-proliferative/cytotoxic activity of the compounds described herein, can be tested on subclones of RKO (RKOp27) human colon adenocarcinoma cells (Schmidt et al., Oncogene 19, 2423-2429; 2000) using the Alamar Blue cell viability assay (described in O'Brien et al. Eur J Biochem 267, 5421-5426, 2000). The compounds are dissolved as 20 mM solutions in dimethylsulfoxide (DMSO) and subsequently diluted in semi-logarithmic steps. DMSO dilutions are further diluted 1:100 into Dulbecco's modified Eagle's medium (DMEM) containing 10% fetal calf serum to a final concentration twice as much as the final concentration in the test. RKO subclones are seeded into 96 well flat bottom plates at a density of 4000 cells per well in a volume of 50 μl per well. 24 hours after seeding the 50 μl each of the compound dilutions in DMEM medium are added into each well of the 96 Well plate. Each compound dilution is tested as quadruplicates. Wells containing untreated control cells are filled with 50 μl DMEM medium containing 1% DMSO. The cells are then incubated with the substances for 72 hours at 37° C. in a humified atmosphere containing 5% carbon dioxide. To determine the viability of the cells, 10 μl of an Alamar Blue solution (Biosource) are added and the fluorescence was measured at an extinction of 544 nm and an emission of 590 nm. For the calculation of the cell viability the emission value from untreated cells is set as 100% viability and the emission rates of treated cells were set in relation to the values of untreated cells. Viabilities are expressed as % values.
The corresponding IC50 values of the compounds for anti-proliferative/cytotoxic activity are determined from the concentration-effect curves.
Representative IC50 values for anti-proliferation/cytotoxicity determined in the aforementioned assay are described in the table A (1st column), in which the numbers of the compound correspond to the numbers of the examples.

Compound CCSC(=O)N1CCc2c(sc(NC(=O)c3cccnc3)c2C#N)C1 [Compound 16, 3-Cyano-2-[(1-pyridin-3-yl-methanoyl)-amino]-4,7-dihydro-5H-thieno[2,3-c]pyridine-6-carbothioic Acid S-ethyl Ester] has a pIC50 [1] of less than 4.00 and a pIC50 [2] of no less than 5.52.
For CCCC(=O)N1CCc2c(sc(NC(=O)c3cccnc3)c2C#N)C1 [Compound 14, N-(6-Butanoyl-3-cyano-4,5,6,7-tetrahydro-thieno[2,3-c]pyridin-2-yl)-nicotinyl Amide], the pIC50 [1] was less than 4.00 and the pIC50 [2] was no less than 5.52.
With CCOC(=O)N1CCc2c(sc(NC(=O)c3cc4ccccc4s3)c2C#N)C1 [Compound 8, 2-[(1-Benzo[b]thiophen-2-yl-methanoyl)-amino]-3-cyano-4,7-dihydro-5H-thieno[2,3-c]pyridine-6-carboxylic Acid Ethyl Ester] the pIC50 [1] was less than 4.00 and the pIC50 [2] was 5.30.
Compound CCOC(=O)N1CCc2c(sc(NC(=O)c3cccnc3)c2C#N)C1 [Compound 1, N-(6-ethoxycarbonyl-3-cyano-4,5,6,7-tetrahydro-thieno[2,3-c]pyridin-2-yl)-nicotinyl Amide] has a pIC50 [1] of less than 4.00 and a pIC50 [2] of 6.30.
Cc1ncsc1CCOC(=O)N1CCc2c(sc(NC(=O)c3cccnc3)c2C#N)C1 [Compound 17, 3-Cyano-2-[(1-Pyridin-3-yl-methanoyl)-amino]-4,7-dihydro-5H-thieno[2,3-c]pyridine-6-carboxylic Acid 2-(4-methyl-thiazol-5-yl)-ethyl Ester] was tested, and the pIC50 [1] was less than 4.00 and the pIC50 [2] was no less than 5.52.
Work on CCOC(=O)N1CCc2c(sc(NC(=O)C3=Cc4ccccc4OC3)c2C#N)C1 [Compound 6, 2-[(1-2H-Chromen-3-yl-methanoyl)-amino]-3-cyano-4,7-dihydro-5H-thieno[2,3-c]pyridine-6-carboxylic Acid Ethyl Ester] yielded a pIC50 [1] of less than 4.00 and a pIC50 [2] of 5.70.
Work on CCOC(=O)N1CCc2c(sc(NC(=O)c3ccc4c(c3)OCC4)c2C#N)C1 [Compound 12] yielded a pIC50 [1] of less than 4.00 and a pIC50 [2] of no less than 5.52.
CCOC(=O)N1CCc2c(sc(NC(=O)c3c(C)noc3-c3ccccc3)c2C#N)C1 [Compound 5, 3-Cyano-2-{[1-(3-methyl-5-phenyl-isoxazol-4-yl)-methanoyl]-amino}-4,7-dihydro-5H-thieno [2,3-c]pyridine-6-carboxylic Acid Ethyl Ester] gave a pIC50 [1] of less than 4.00 and a pIC50 [2] of 5.70.
Compound CCOC(=O)N1CCc2c(sc(NC(=O)c3cccs3)c2C#N)C1 [Compound 7, 3-Cyano-2-[(1-thiophen-2-yl-methanoyl)-amino]-4,7-dihydro-5H-thieno[2,3-c]pyridine-6-carboxylic Acid Ethyl Ester] has a pIC50 [1] of less than 4.00 and a pIC50 [2] of 5.70.
CCOC(=O)N1CCc2c(sc(NC(=O)c3ccc(C)s3)c2C#N)C1 [Compound 10, 3-Cyano-2-{[1-(5-methyl-thiophen-2-yl)-methanoyl]-amino}-4,7-dihydro-5H-thieno[2,3-c]pyridine-6-carboxylic Acid Ethyl Ester] gave a pIC50 [1] of less than 4.00 and a pIC50 [2] of 6.70.
